ChEMBL document CHEMBL1201862, “PubChem BioAssay data set” (2004)
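Step 1: Grow cells in 96-well plates. Step 2: Expose to compound for 48 hours at 5 concentrations. Step 3: Interpolate endpoints linearly; if unreached, use highest concentration. GI50 marks 50% less growth.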 Calls of active or inactive are those of the source. Cut-off read from the data, not from the text of the source: active = GI50 up to about 1.1 µM and inactive = higher.

Key:
Assay in all cases: NCI-60 cell line screen, 48 h
NCI-H522 = system: NCI-H522
A498 = system: A498
SK-OV-3 = system: SK-OV-3
OVCAR-8 = system: OVCAR-8
786-0 = system: 786-0
CAKI-1 = system: CAKI-1
IGROV-1 = system: IGROV-1
UACC-257 = system: UACC-257
PC-3 = system: PC-3
U-251 = system: U-251
HT-29 = system: HT-29
COLO 205 = system: COLO 205
SK-MEL-2 = system: SK-MEL-2
HOP-62 = system: HOP-62
NCI/ADR-RES = system: NCI/ADR-RES
ACHN = system: ACHN
EKVX = system: EKVX
SNB-75 = system: SNB-75
MDA-MB-435 = system: MDA-MB-435
HCT-15 = system: HCT-15
MDA-MB-231 = system: MDA-MB-231
LOX IMVI = system: LOX IMVI
RPMI-8226 = system: RPMI-8226
DU-145 = system: DU-145
HCT-116 = system: HCT-116
SN12C = system: SN12C
HCC 2998 = system: HCC 2998
SF-539 = system: SF-539
MCF7 = system: MCF7
MDA-N = system: MDA-N
Hs-578T = system: Hs-578T
RXF 393 = system: RXF 393
SNB-19 = system: SNB-19
M14 = system: M14
OVCAR-3 = system: OVCAR-3
UO-31 = system: UO-31
KM12 = system: KM12
SK-MEL-5 = system: SK-MEL-5
MOLT-4 = system: MOLT-4
NCI-H460 = system: NCI-H460
SW-620 = system: SW-620
BT-549 = system: BT-549
SF-295 = system: SF-295
HOP-92 = system: HOP-92
HL-60 = system: HL-60
TK-10 = system: TK-10
NCI-H226 = system: NCI-H226
OVCAR-5 = system: OVCAR-5
SF-268 = system: SF-268
CCRF-CEM = system: CCRF-CEM
T47D = system: T47D
A549 = system: A549
K562 = system: K562
NCI-H23 = system: NCI-H23
UACC-62 = system: UACC-62
OVCAR-4 = system: OVCAR-4

Structure (SMILES): O=C1C=C(Nc2cccnc2)c2ccccc2/C1=N/O
- GI50 (NCI-H522): 9.89 µM (inactive)
- GI50 (A498): 41.3 µM (inactive)
- GI50 (SK-OV-3): 46.2 µM (inactive)
- GI50 (OVCAR-8): 21.5 µM (inactive)
- GI50 (786-0): 57.7 µM (inactive)
- GI50 (CAKI-1): 40.4 µM (inactive)
- GI50 (IGROV-1): 13.6 µM (inactive)
- GI50 (UACC-257): 33.1 µM (inactive)
- GI50 (PC-3): 19.5 µM (inactive)
- GI50 (U-251): 26.3 µM (inactive)
- GI50 (HT-29): 11.1 µM (inactive)
- GI50 (COLO 205): 19.4 µM (inactive)
- GI50 (SK-MEL-2): 31.3 µM (inactive)
- GI50 (HOP-62): 23 µM (inactive)
- GI50 (NCI/ADR-RES): 21.5 µM (inactive)
- GI50 (ACHN): 23.2 µM (inactive)
- GI50 (EKVX): 14.7 µM (inactive)
- GI50 (SNB-75): 5.69 µM (inactive)
- GI50 (MDA-MB-435): 12.7 µM (inactive)
- GI50 (HCT-15): 15.2 µM
- GI50 (MDA-MB-231): 16.7 µM (inactive)
- GI50 (LOX IMVI): 26.3 µM (inactive)
- GI50 (RPMI-8226): 38 µM (inactive)
- GI50 (DU-145): 50.5 µM (inactive)
- GI50 (HCT-116): 26.6 µM (inactive)
- GI50 (SN12C): 34.4 µM (inactive)
- GI50 (HCC 2998): 22.5 µM (inactive)
- GI50 (SF-539): 18.5 µM (inactive)
- GI50 (MCF7): 21.6 µM (inactive)
- GI50 (MDA-N): 12.6 µM (inactive)
- GI50 (Hs-578T): 33.4 µM (inactive)
- GI50 (RXF 393): 33.7 µM (inactive)
- GI50 (SNB-19): 1.38 µM (inactive)
- GI50 (M14): 23.2 µM (inactive)
- GI50 (OVCAR-3): 1.81 µM (inactive)
- GI50 (UO-31): 21 µM (inactive)
- GI50 (KM12): 13.6 µM (inactive)
- GI50 (SK-MEL-5): 4.67 µM (inactive)
- GI50 (MOLT-4): 15.7 µM (inactive)
- GI50 (NCI-H460): 22.8 µM (inactive)
- GI50 (SW-620): 18.3 µM (inactive)
- GI50 (BT-549): 34.1 µM (inactive)
- GI50 (SF-295): 39.2 µM (inactive)
- GI50 (HOP-92): 21.8 µM (inactive)
- GI50 (HL-60): 0.789 µM (active)
- GI50 (TK-10): > 100 µM (inactive)
- GI50 (NCI-H226): 58.7 µM (inactive)
- GI50 (OVCAR-5): > 100 µM (inactive)
- GI50 (SF-268): 9.77 µM (inactive)
- GI50 (CCRF-CEM): 5.85 µM (inactive)
- GI50 (T47D): 30.1 µM (inactive)
- GI50 (A549): 39.6 µM (inactive)
- GI50 (K562): 24.7 µM (inactive)
- GI50 (NCI-H23): 19.7 µM (inactive)
- GI50 (UACC-62): 20.9 µM (inactive)
- GI50 (OVCAR-4): 19.6 µM (inactive)
